# Assay results published in US20240132525A1, “BORON […], CO[…], METHODS AND USES THEREOF” (priority 2022, published 2024).
# Experiments:
# [1] = Dog LM (liver microsome) assay; type: in vitro ADME; conditions: Table 3a; predicted clearance as percent of liver blood flow, 1 μM, 1 mg/ml microsomal protein
# Outline: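 Pooled Beagle liver microsomes (1 mg/ml protein), compound 1 μM, Tris pH 7.6 with 5 mM MgCl2, 37 °C, started with 1 mM NADPH; parent loss by LC-MS/MS over several time points.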
# [2] = target: JAK1 (Homo sapiens (Human), UniProt P23458); assay: Biochemical kinase assay (33P-ATP filter-binding), JAK1; conditions: Table 3a; read-out: IC50 JAK1
# JAK1, sequence (P23458 whole entry, species assumed): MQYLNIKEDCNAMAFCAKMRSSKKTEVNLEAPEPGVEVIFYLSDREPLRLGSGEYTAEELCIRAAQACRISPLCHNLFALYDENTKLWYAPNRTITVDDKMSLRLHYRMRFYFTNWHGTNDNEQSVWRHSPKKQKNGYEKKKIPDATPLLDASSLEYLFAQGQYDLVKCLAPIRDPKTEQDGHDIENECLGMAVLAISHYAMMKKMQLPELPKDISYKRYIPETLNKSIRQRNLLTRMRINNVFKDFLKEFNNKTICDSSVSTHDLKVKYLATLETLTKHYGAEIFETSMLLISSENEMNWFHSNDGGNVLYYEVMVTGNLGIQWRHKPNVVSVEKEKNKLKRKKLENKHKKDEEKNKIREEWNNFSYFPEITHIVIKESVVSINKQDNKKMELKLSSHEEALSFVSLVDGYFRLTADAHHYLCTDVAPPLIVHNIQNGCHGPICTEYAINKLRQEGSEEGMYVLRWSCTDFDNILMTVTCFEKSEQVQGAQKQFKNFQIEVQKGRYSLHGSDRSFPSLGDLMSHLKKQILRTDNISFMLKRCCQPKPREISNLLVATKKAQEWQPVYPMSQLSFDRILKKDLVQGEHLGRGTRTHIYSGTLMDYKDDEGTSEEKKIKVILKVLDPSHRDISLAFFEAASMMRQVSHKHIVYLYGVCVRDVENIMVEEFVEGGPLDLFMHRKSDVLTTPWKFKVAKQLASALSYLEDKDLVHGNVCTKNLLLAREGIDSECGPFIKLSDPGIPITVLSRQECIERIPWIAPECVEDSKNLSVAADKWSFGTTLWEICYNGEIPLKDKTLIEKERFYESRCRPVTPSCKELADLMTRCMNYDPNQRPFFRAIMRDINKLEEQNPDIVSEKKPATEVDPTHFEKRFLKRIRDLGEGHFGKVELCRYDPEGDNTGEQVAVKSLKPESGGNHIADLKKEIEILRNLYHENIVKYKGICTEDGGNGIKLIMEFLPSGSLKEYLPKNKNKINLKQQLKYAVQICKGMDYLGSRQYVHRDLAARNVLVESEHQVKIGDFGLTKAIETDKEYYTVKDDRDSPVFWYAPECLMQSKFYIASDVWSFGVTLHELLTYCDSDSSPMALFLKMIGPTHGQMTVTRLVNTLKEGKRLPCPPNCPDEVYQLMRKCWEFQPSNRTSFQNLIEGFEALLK
# Excerpt: (§1) Biochemical Kinase Assay Protocol (JAK)
# (§2) Reaction Procedure: • 1. […] Detected kinase activity by filter-binding method.
# [3] = test system: GM-CSF/pSTAT5; assay: Cytokine function assay GM-CSF/pSTAT5 in lysed whole blood cells; type: cell-based; conditions: Whole blood cell, read-out: IC50 GM-CSF
# Protocol: (§3) Cytokine Function Assay Protocols for IL-4/pSTAT6 and GM-CSF/pSTAT5
# GM-CSF/pSTAT5: • Whole blood from a healthy donor was lysed to remove red blood cells. Cells were plated onto a 96 well plate. Compound was added and incubated for 1 hour (at 37° C.). After 1 hour, cells were stimulated with GM-CSF for 15 minutes. Cells were fixed and stained with anti-pSTAT5 antibody. After staining, cells were read on a Beckman-Coulter CytoFLEX.
# [4] = target: JAK2 (Homo sapiens (Human), UniProt O60674); assay: Biochemical kinase assay (33P-ATP filter-binding), JAK2; conditions: Table 3a; read-out: IC50 JAK2
# JAK2, sequence (O60674 whole entry, species assumed): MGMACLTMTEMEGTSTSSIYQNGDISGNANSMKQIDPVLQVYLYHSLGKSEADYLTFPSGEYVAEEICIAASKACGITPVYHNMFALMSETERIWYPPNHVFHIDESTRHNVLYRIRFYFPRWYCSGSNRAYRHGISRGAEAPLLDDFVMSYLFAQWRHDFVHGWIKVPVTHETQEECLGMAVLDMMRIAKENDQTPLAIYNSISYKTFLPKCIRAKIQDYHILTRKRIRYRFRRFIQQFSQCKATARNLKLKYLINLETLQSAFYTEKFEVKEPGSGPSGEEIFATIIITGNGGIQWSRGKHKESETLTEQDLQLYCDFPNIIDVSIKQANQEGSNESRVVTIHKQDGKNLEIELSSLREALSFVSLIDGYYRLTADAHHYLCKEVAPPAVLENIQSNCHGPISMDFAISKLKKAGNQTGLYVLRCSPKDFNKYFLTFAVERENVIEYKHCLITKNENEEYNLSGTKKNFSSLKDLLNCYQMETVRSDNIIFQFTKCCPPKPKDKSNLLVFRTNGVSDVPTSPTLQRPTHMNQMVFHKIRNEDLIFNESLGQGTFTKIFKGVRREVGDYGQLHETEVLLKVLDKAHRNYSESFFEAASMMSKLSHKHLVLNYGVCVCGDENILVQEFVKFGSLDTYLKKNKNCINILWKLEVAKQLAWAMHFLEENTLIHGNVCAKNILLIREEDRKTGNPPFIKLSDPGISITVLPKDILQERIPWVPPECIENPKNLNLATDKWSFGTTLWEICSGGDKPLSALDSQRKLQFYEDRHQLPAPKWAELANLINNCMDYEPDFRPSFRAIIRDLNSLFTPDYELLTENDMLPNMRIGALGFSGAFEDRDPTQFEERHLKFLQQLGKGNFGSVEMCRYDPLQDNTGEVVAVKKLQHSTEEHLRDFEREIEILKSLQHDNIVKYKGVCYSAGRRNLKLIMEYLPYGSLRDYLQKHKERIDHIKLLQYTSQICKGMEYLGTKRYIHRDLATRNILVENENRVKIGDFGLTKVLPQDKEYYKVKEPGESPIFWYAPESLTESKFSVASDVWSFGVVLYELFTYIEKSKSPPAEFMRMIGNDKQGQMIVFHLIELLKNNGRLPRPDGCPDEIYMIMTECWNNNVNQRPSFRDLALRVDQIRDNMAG
# Excerpt: as §1, §2
# [5] = test system: IL-31; assay: Cytokine function assay for IL-31 in DH82 cells; type: cell-based, canine; conditions: Canis lupus familiaris, DH82; Table 3a; read-out: IC50 IL-31
# Protocol: Cytokine Function Assay Protocol for IL-31
# The protocol for the cytokine function assay for IL-31 is set forth below: • 1. […] After 24 hr, wash with 37° C. pre-warmed PBS (100 uL/well). • 3. Add serum-free MEM, 90 uL per well, 2 hr, 37° C. • 4. Add 10 uL 10×IL-31 (40, 10, 2.5 ug/mL) in duplicate, 5 min, 37° C. • 5. Remove medium, add 60 uL lysis buffer per well. Agitate on a plate shaker (˜350 rpm) for 10 min at RT. • 6. […] Add 6 uL Acceptor Mix, cover with aluminum foil, quickly spin at 1000 rpm, shake at 120 rpm for 2 min, then incubate at RT for 1 hr. • 8. Add 6 uL Donor Mix, cover with aluminum foil, quickly spin at 1000 rpm, shake at 120 rpm for 2 min, then incubate at RT for 1 hr. • 9. Measure the fluorescence using EnVision™ plate reader.
# [6] = test system: IL-4/pSTAT6; assay: Cytokine function assay IL-4/pSTAT6 in PBMC; type: cell-based; conditions: PBMC, read-out: IC50 IL-4, Table 3a
# Protocol: as §3
# IL-4/pSTAT6: • PBMC from a healthy donor was plated onto a 96 w plate. Compound was added and incubated for 1 hour (at 37° C.). After 1 hour, cells were stimulated with IL-4 for 15 minutes. Cells were fixed and stained with anti-pSTAT6 antibody. After staining, cells were read on a Beckman-Coulter CytoFLEX.
Structure (SMILES),Dog LM QH [1],IC50 [2],IC50 [3],IC50 [4],IC50 [5],IC50 [6]
"Cc1cnc(Nc2cc(Cl)c3c(c2)COB3O)nc1NC1CCCC1C#N (racemic) [Example 003, (trans)-2-((2-((7-chloro-1-hydroxy-1,3-dihydrobenzo[c][1,2]oxaborol-5-yl)amino)-5-methylpyrimidin-4-yl)amino)cyclopentane-1-carbonitrile]",<19.9%,0.7 nM,1430 nM,40 nM,21.2 nM,106 nM
"Cc1cnc(Nc2cc(Cl)c3c(c2)COB3O)nc1NC1CCCCC1C#N (racemic) [Example 010, (trans)-2-[[2-[(7-chloro-1-hydroxy-1,3dihydrobenzo[c][1,2]oxaboroll-5-yl)amino]-5-methyl-pyrimidin-4-yl]amino]cyclohexane-1-carbonitrile]",<19.9%,0.7 nM,1020 nM,19.3 nM,18.1 nM,71.7 nM
"Cc1cnc(Nc2cc3c(c(C(F)(F)F)c2)B(O)OC3)nc1NC1CCCCC1C#N (racemic) [Example 011, (trans)-2-((2-((1-hydroxy-7-(trifluoromethyl)-1,3-dihydrobenzo[c][1,2]oxaborol-5-yl)amino)-5-methylpyrimidin-4-yl)amino)cyclohexane-1-carbonitrile]",<19.9%,0.9 nM,1150 nM,37.5 nM,33.6 nM,159 nM
"Cc1cnc(Nc2ccc3c(c2)COB3O)nc1NC1COCCC1C#N (racemic) [Example 026, (trans)-3-[[2-[(1-hydroxy-3H-2,1-benzoxaborol-5-yl)amino]-5-methyl-pyrimidin-4-yl]amino]tetrahydropyran-4-carbonitrile]",<19.9%,0.5 nM,2660 nM,7 nM,64.6 nM,91.9 nM
"Cc1cnc(Nc2cc(Cl)c3c(c2)COB3O)nc1NC1COCCC1C#N (racemic) [Example 031, (trans)-3-((2-((7-chloro-1-hydroxy-1,3-dihydrobenzo[c][1,2]oxaborol-5-yl)amino)-5-methylpyrimidin-4-yl)amino)tetrahydro-2H-pyran-4-carbonitrile]",<19.9%,1.2 nM,3150 nM,40.8 nM,27.6 nM,67.5 nM
"Cc1cnc(Nc2ccc3c(c2)COB3O)nc1N[C@@H]1CCCC[C@H]1C#N (relative stereo) [Example 008, (trans)2-[[2-[(1-hydroxy-3H-2,1-benzoxaborol-5-yl)amino]-5-methyl-pyrimidin-4-yl]amino]cyclohexane-1-carbonitrile]",<19.9%,0.3 nM,774 nM,3.4 nM,40.2 nM,95.9 nM
"N#C[C@@H]1CCCC[C@H]1Nc1nc(Nc2ccc3c(c2)COB3O)ncc1Cl (relative stereo) [Example 017, (trans)-2-((5-chloro-2-((1-hydroxy-1,3-dihydrobenzo[c][1,2]oxaborol-5-yl)amino)pyrimidin-4-yl)amino)cyclohexane-1-carbonitrile]",<19.9%,0.4 nM,10000 nM,4.2 nM,35.4 nM,233 nM
"Cc1cnc(Nc2cc(C)c3c(c2)COB3O)nc1N[C@@H]1COCC[C@H]1C#N (relative stereo) [Example 027, (trans)-3-((2-((1-hydroxy-7-methyl-1,3-dihydrobenzo[c][1,2]oxaborol-5-yl)amino)-5-methylpyrimidin-4-yl)amino)tetrahydro-2H-pyran-4-carbonitrile]",30.1%,0.6 nM,1200 nM,3.5 nM,81.3 nM,79.9 nM
"Cc1cnc(Nc2cc(Cl)c3c(c2)COB3O)nc1N[C@@H]1CCC[C@H]1C#N (single isomer, unassigned) [Example 003a, (trans)-2-((2-((7-chloro-1-hydroxy-1,3-dihydrobenzo[c][1,2]oxaborol-5-yl)amino)-5-methylpyrimidin-4-yl)amino)cyclopentane-1-carbonitrile]",<19.9%,0.7 nM,2220 nM,3.7 nM,9.2 nM,93.3 nM
